Earlier results as cited in PMC6721965 (Biochimica et biophysica acta. Biomembranes, 2019).

test system: bacteria; conditions: classification of parent peptides used for hybrid design; ref [4]-[8]

Sequence	Primary cellular localization pattern
ARDNKKTRIWPRHLQLAVRN [DesHDAP1]	membrane translocation
GIGKWLHSAKKFGKAFVGEIMNS [magainin 2]	membrane localization/permeabilization
KGRGKQGGKVRWKAKTRSS [parasin]	membrane localization/permeabilization
TRSSRAGLQWPVGRVHRLLRK [buforin II (BF2), buforin II]	membrane translocation
